In general, Kd refers to the constant that tells how readily two partners part at equilibrium. A low value points to a tighter complex.

Molecules are shown by their SMILES.

What all share (format): binding
Common to all, as to details: SD

Assay [1] addresses T1, RSL[4FW].
T1 construct: all seven Trp replaced by 4-fluorotryptophan (85% of protein 7/7 labeled); from pQE80L-RSL in E. coli BWEC47; homotrimer

In assay [2] the target is T2, RSL[5FW].
T2 construct: all seven Trp replaced by 5-fluorotryptophan (86% of protein 7/7 labeled); from pQE80L-RSL in E. coli BWEC47; homotrimer

Assay [3] deals with T3, RSL[7FW].
T3 construct: all seven Trp replaced by 7-fluorotryptophan (84% of protein 7/7 labeled); from pQE80L-RSL in E. coli BWEC47; homotrimer

The target in assay [4] is T4, RSL (Ralstonia solanacearum, UniProt A0A0S4TLR1).
T4 construct: gene E7Z57_08365
The assay is described as follows: biochemical.

Take `CO[C@@H]1O[C@@H](C)[C@@H](O)[C@@H](O)[C@@H]1O` [αMeFuc, methyl α-L-fucopyranoside]: the Kd is 1.73 µM in assay [1], 0.889 µM in assay [2], 1.11 µM in assay [3] and 1.21 µM in assay [4].

For the compound `CC(=O)N[C@H]1[C@H](O[C@H]2[C@@H](O)[C@@H](CO)OC(O)[C@@H]2O)O[C@H](CO)[C@@H](O[C@@H]2O[C@H](CO)[C@H](O)[C@H](O)[C@H]2O)[C@@H]1O[C@@H]1O[C@@H](C)[C@@H](O)[C@@H](O)[C@@H]1O` (stereo partly drawn) [LeX, lewis X tetrasaccharide, Galβ1–4[Fucα1–3]GlcNAcβ1–3Gal], the equilibrium dissociation constant (Kd) in assay [1] is 67.8 µM; in assay [2], 52.4 µM; in assay [3], 52.1 µM; in assay [4], 32.5 µM.

For the compound `CC(=O)N[C@H]1[C@H](O[C@H]2[C@@H](O)[C@@H](CO)OC(O)[C@@H]2O)O[C@H](CO)[C@@H](O[C@@H]2O[C@H](CO)[C@H](O)[C@H](O)[C@H]2O[C@@H]2O[C@@H](C)[C@@H](O)[C@@H](O)[C@@H]2O)[C@@H]1O` (stereo partly drawn) [HType2, blood group H type 2 antigen tetrasaccharide, Fucα1–2Galβ1–4GlcNAcβ1–3Gal], the dissociation constant Kd worked out at 8.18 µM in assay [1], 6.06 µM in assay [2], 4.35 µM in assay [3] and 6.36 µM in assay [4].

The record behind these values is publication PMC6102642, “Effect of Noncanonical Amino Acids on Protein–Carbohydrate Interactions: Structure, Dynamics, and Carbohydrate Affinity of a Lectin Engineered with Fluorinated Tryptophan Analogs” (ACS Chemical Biology, 2018).
